The values that follow come from patent EP0814162A2 (priority 1996, dated 1997).

Each structure is given as a SMILES string.

In data set [1] the test system is hla-lacZ fusion. As to the kind of experiment: β-galactosidase chemiluminescent reporter assay of the chromosomal hla-lacZ fusion (hla expression). It is filed as cell-based, S. aureus Wood 46-3. Conditions: for influence on hla expression (in words): subinhibitory concentrations of antibiotics. (In a reporter assay the amount or activity of a reporter protein is the signal.)

Data set [2] concerns hla mRNA. As to the kind of experiment: Northern blot analysis with intragenic hla probe. Particulars: 0.5 µg/ml methicillin versus without antibiotic.
The subject of data set [3] is α-toxin. Particulars: in vitro; cited from earlier work.
For data set [4] the following is noted: mouse model; cited from earlier work.

For `COc1cccc(OC)c1C(=O)N[C@@H]1C(=O)N2[C@@H]1SC(C)(C)[C@@H]2C(=O)O` [Methicillin], the “increase of the β-galactosidase activity compared to medium without antibiotic” value in data set [1] (quarter of the MIC, postexponential phase) is reported as “sixfold increase”. For the same compound, in data set [1], the “influence on hla expression (in words)” value is given as “dramatically increased”. In addition, the “amount of hla mRNA detected by Northern hybridization” value in data set [2] is recorded as “greater amount of hla mRNA”. For `CCOc1ccc2ccccc2c1C(=O)N[C@@H]1C(=O)N2[C@@H]1SC(C)(C)[C@@H]2C(=O)O` [nafcillin], in data set [3], the α-toxin production entry was “induces”. For the same compound, in data set [4], the “lethal activity of broth filtrates” value is recorded as “increases”.

Take `CN[C@H](CC(C)C)C(=O)N[C@H]1C(=O)N[C@@H](CC(N)=O)C(=O)N[C@H]2C(=O)N[C@H]3C(=O)N[C@H](C(=O)N[C@H](C(=O)O)c4cc(O)cc(O)c4-c4cc3ccc4O)[C@H](O)c3ccc(c(Cl)c3)Oc3cc2cc(c3O[C@@H]2O[C@H](CO)[C@@H](O)[C@H](O)[C@H]2O[C@H]2C[C@](C)(N)[C@H](O)[C@H](C)O2)Oc2ccc(cc2Cl)[C@H]1O` [Vancomycin]: the “influence on hla expression (in words)” value in data set [1] was “weak stimulatary effect”. In the case of `[Cl-].[Na+]` [NaCl, sodium chloride], the β-galactosidase production in data set [1] (0.8 M NaCl in LB broth, postexponential) came out at 7800 RLU. Also, the “effect on hla expression (in words)” value in data set [1] (NaCl above 1.6 M) is listed as “inhibitory”. `Cc1onc(-c2ccccc2)c1C(=O)N[C@@H]1C(=O)N2[C@@H]1SC(C)(C)[C@@H]2C(=O)O` [Oxacillin]: the “influence on hla expression (in words)” value in data set [1] is listed as “dramatically increased”. Same read-out and setting: with `C[C@@H]1O[C@@H]1P(=O)(O)O` [Fosfomycin] the entry was “weak stimulatary effect”; with `COc1cc(Cc2cnc(N)nc2N)cc(OC)c1OC` [Trimethoprim], “weak stimulatary effect”; with `CC[C@H]1OC(=O)[C@H](C)[C@@H](O[C@H]2C[C@@](C)(OC)[C@@H](O)[C@H](C)O2)[C@H](C)[C@@H](O[C@@H]2O[C@H](C)C[C@H](N(C)C)[C@H]2O)[C@](C)(O)C[C@@H](C)C(=O)[C@H](C)[C@@H](O)[C@]1(C)O` [Erythromycin], “repressed”.
